Drawing on patent US9210927B2, “Pesticidal compositions and processes related thereto” (Dow AgroSciences LLC, priority 2013, dated 2015), this text covers pest or weed control for 35 compounds.

For one test, the system named is BAW (Spodoptera exigua). In words: Bioassays on Beet Armyworm (BAW), 128-well diet tray assay. The class given is in vivo. As to conditions: Spodoptera exigua, 168 h, read-out: BAW Rating. As for the experimental part: (§1) Bioassays on Beet Armyworm (“BAW”) and Corn Earworm (“CEW”) and Cabbage Looper (“CL”)
(§2) Certain molecules disclosed in this document were tested against BAW and CEW and CL using procedures described in the following examples. In the reporting of the results, the “BAW & CEW & CL Rating Table” was used (See Table Section).
Bioassays on BAW (Spodoptera exigua)
Bioassays on BAW were conducted using a 128-well diet tray assay. one to five second instar BAW larvae were placed in each well (3 mL) of the diet tray that had been previously filled with 1 mL of artificial diet to which 50 μg/cm^2 of the test compound (dissolved in 50 μL of 90:10 acetone-water mixture) had been applied (to each of eight wells) and then allowed to dry. Trays were covered with a clear self-adhesive cover, and held at 25° C., 14:10 light-dark for five to seven days. Percent mortality was recorded for the larvae in each well; activity in the eight wells was then averaged. The results are indicated in the table entitled “Table 3: Assay Results” (See Table Section).

The test system of another test is CEW (Helicoverpa zea). In words: Bioassays on Corn Earworm (CEW), 128-well diet tray assay. As to conditions: Helicoverpa zea, 168 h; percent mortality, second instar larvae, 50 μg/cm^2 on artificial diet, five to seven days, 25° C.; read-out: CEW Rating. The class given is in vivo. The method, then:
as §1, §2
Bioassays on CEW (Helicoverpa zea)
Bioassays on CEW were conducted using a 128-well diet tray assay. one to five second instar CEW larvae were placed in each well (3 mL) of the diet tray that had been previously filled with 1 mL of artificial diet to which 50 μg/cm^2 of the test compound (dissolved in 50 μL of 90:10 acetone-water mixture) had been applied (to each of eight wells) and then allowed to dry. Trays were covered with a clear self-adhesive cover, and held at 25° C., 14:10 light-dark for five to seven days. Percent mortality was recorded for the larvae in each well; activity in the eight wells was then averaged. The results are indicated in the table entitled “Table 3: Assay Results” (See Table Section).

Turning to `O=C(CNC(=O)c1ccc(/C=C\C(c2cc(Cl)c(Cl)c(Cl)c2)C(F)(F)F)cc1Br)NCC(F)(F)F` (stereo not shown) [AC95, (Z)-2-Bromo-N-(2-oxo-2-((2,2,2-trifluoroethyl)amino)ethyl)-4-(4,4,4-trifluoro-3-(3,4,5-trichlorophenyl)but-1-en-1-yl)benzamide], the pest or weed control at 50 µg/cm2 in the test with BAW (Spodoptera exigua) and in the test on CEW (Helicoverpa zea) was 50 to 100% in each case.
On to `O=C(CNC(=O)c1ccc(/C=C/C(c2cc(Cl)c(F)c(Cl)c2)C(F)(F)F)cc1[N+](=O)[O-])NCC(F)(F)F` (stereo not shown) [AC98], for which the pest or weed control at 50 µg/cm2 in the test on BAW (Spodoptera exigua) and in the test on CEW (Helicoverpa zea) was 50 to 100% each time.
Regarding `O=C(CNC(=O)c1ccc(/C=C/C(c2ccc(F)c(Cl)c2)C(F)(F)F)cc1Br)NCC(F)(F)F` (stereo not shown) [AC99], the pest or weed control at 50 µg/cm2 in the test on BAW (Spodoptera exigua) and with CEW (Helicoverpa zea) was 50 to 100% throughout.
With `CC(=O)N1CCC(NC(=O)c2ccc(/C=C/C(c3cc(Cl)c(Cl)c(Cl)c3)C(F)(F)F)cc2Br)CC1` (stereo not shown) [AC103, (E)-N-(1-Acetylpiperidin-4-yl)-2-bromo-4-(4,4,4-trifluoro-3-(3,4,5-trichlorophenyl)but-1-en-1-yl)benzamide], the pest or weed control at 50 µg/cm2 in the test with BAW (Spodoptera exigua) and in the test with CEW (Helicoverpa zea) was 50 to 100% throughout.
Turning to `N#CCN1CCC(NC(=O)c2ccc(/C=C/C(c3cc(Cl)c(Cl)c(Cl)c3)C(F)(F)F)cc2Br)CC1` (stereo not shown) [AC107], the pest or weed control at 50 µg/cm2 fell in the range of 0 to 50% in the test with BAW (Spodoptera exigua) and 50 to 100% in the test with CEW (Helicoverpa zea).
Taken in the same sequence, the figures for `CONC(=O)CNC(=O)c1ccc(/C=C/C(c2cc(Cl)c(Cl)c(Cl)c2)C(F)(F)F)cc1Br` (stereo not shown) [AC110] were 50 to 100% and 50 to 100%.
Taken in the same sequence, the figures for `C=CCNC(=O)CNC(=O)c1ccc(/C=C/C(c2cc(Cl)c(Cl)c(Cl)c2)C(F)(F)F)cc1Br` (stereo not shown) [AC111] were 50 to 100% and 50 to 100%.
On to `O=C(NCCc1ccc(Cl)nc1)c1ccc(/C=C/C(c2cc(Cl)c(Cl)c(Cl)c2)C(F)(F)F)cc1Br` (stereo not shown) [AC113], for which the pest or weed control at 50 µg/cm2 with BAW (Spodoptera exigua) lay within 0 to 50%; with CEW (Helicoverpa zea), 50 to 100%.
As for `O=C(NC1CCNCC1)c1ccc(/C=C/C(c2cc(Cl)c(Cl)c(Cl)c2)C(F)(F)F)cc1Br` (stereo not shown) [AC114, (E)-2-Bromo-N-(piperidin-4-yl)-4-(4,4,4-trifluoro-3-(3,4,5-trichlorophenyl)but-1-en-1-yl)benzamide], the pest or weed control at 50 µg/cm2 with BAW (Spodoptera exigua) was in the range of 50 to 100%; in the test with CEW (Helicoverpa zea), 0 to 50%.
In the same order, the values of `Cc1cc(/C=C/C(c2cc(Cl)cc(Cl)c2)C(F)(F)F)ccc1C(=S)NCc1ccc(Cl)nc1` (stereo not shown) [AC115, (E)-N-((6-Chloropyridin-3-yl)methyl)-4-(3-(3,5-dichlorophenyl)-4,4,4-trifluorobut-1-en-1-yl)-2-methylbenzothioamide] are 50 to 100% and 50 to 100%.
In the same order, the values of `O=C(NC1CCc2cc(/C=C/C(c3cc(Cl)c(Cl)c(Cl)c3)C(F)(F)F)ccc21)C1CC1` (stereo not shown) [BC6] are 50 to 100% and 50 to 100%.
In the same order, the values of `O=C(NC1CCCc2cc(/C=C/C(c3cc(Cl)c(Cl)c(Cl)c3)C(F)(F)F)ccc21)C1CC1` (stereo not shown) [BC7] are 50 to 100% and 50 to 100%.
As for `O=C(Cc1ccc(Cl)nc1)NC1CCc2cc(/C=C/C(c3cc(Cl)c(F)c(Cl)c3)C(F)(F)F)ccc21` (stereo not shown) [BC9], the pest or weed control at 50 µg/cm2 in the test with BAW (Spodoptera exigua) and in the test on CEW (Helicoverpa zea) was 50 to 100% throughout.
Turning to `O=C(CC(F)(F)F)NCC(=O)n1ccc2cc(/C=C/C(c3cc(Cl)c(F)c(Cl)c3)C(F)(F)F)ccc21` (stereo not shown) [BC13, (E)-N-(2-(5-(3-(3,5-Dichloro-4-fluorophenyl)-4,4,4-trifluorobut-1-en-1-yl)-1H-indol-1-yl)-2-oxoethyl)-3,3,3-trifluoropropanamide], the pest or weed control at 50 µg/cm2 with BAW (Spodoptera exigua) and with CEW (Helicoverpa zea) was 50 to 100% throughout.
In the case of `O=C(CC(F)(F)F)NCc1ccc(/C=C/C(c2cc(Cl)cc(Cl)c2)C(F)(F)F)cc1` (stereo not shown) [CC3], the pest or weed control at 50 µg/cm2 in the test with BAW (Spodoptera exigua) and in the test with CEW (Helicoverpa zea) was 50 to 100% in each case.
With `O=C(NCc1ccc(/C=C/C(c2cc(Cl)cc(Cl)c2)C(F)(F)F)cc1Cl)C1CC1` (stereo not shown) [CC8], the pest or weed control at 50 µg/cm2 in the test on BAW (Spodoptera exigua) and with CEW (Helicoverpa zea) was 50 to 100% each time.
Regarding `FC(F)(F)C(/C=C/c1ccc(CNC(=S)C2CC2)c(Cl)c1)c1cc(Cl)c(Cl)c(Cl)c1` (stereo not shown) [CC20], the pest or weed control at 50 µg/cm2 in the test with BAW (Spodoptera exigua) and in the test on CEW (Helicoverpa zea) was 50 to 100% in each case.
With `O=C(NCc1ccc(/C=C/C(c2cc(Cl)cc(Cl)c2)C(F)(F)F)cc1C(F)(F)F)C1CC1` (stereo not shown) [CC21], the pest or weed control at 50 µg/cm2 with BAW (Spodoptera exigua) and in the test on CEW (Helicoverpa zea) was 50 to 100% in each case.
Consider `O=C(CC(F)(F)F)NCc1ccc(/C=C/C(c2cc(Cl)c(Cl)c(Cl)c2)C(F)(F)F)cc1C(F)(F)F` (stereo not shown) [CC24], for which the pest or weed control at 50 µg/cm2 with BAW (Spodoptera exigua) and in the test with CEW (Helicoverpa zea) was 50 to 100% in each case.
For the compound `O=C(CC(F)(F)F)NCc1ccc(/C=C/C(c2cc(Cl)c(Cl)c(Cl)c2)C(F)(F)F)cc1F` (stereo not shown) [CC27], the pest or weed control at 50 µg/cm2 in the test with BAW (Spodoptera exigua) and with CEW (Helicoverpa zea) was 50 to 100% in each case.
Regarding `O=C(NCc1ccc(/C=C/C(c2cc(Cl)c(Cl)c(Cl)c2)C(F)(F)F)cc1F)C1CC1` (stereo not shown) [CC28], the pest or weed control at 50 µg/cm2 in the test with BAW (Spodoptera exigua) and in the test on CEW (Helicoverpa zea) was 50 to 100% each time.
Take `CS(=O)(=O)CCC(=O)NCc1ccc(/C=C/C(c2cc(Cl)c(Cl)c(Cl)c2)C(F)(F)F)cc1Cl` (stereo not shown) [CC30, (E)-N-(2-Chloro-4-(4,4,4-trifluoro-3-(3,4,5-trichlorophenyl)but-1-en-1-yl)benzyl)-3-(methylsulfonyl)propanamide]: the pest or weed control at 50 µg/cm2 in the test with BAW (Spodoptera exigua) and in the test with CEW (Helicoverpa zea) was 50 to 100% in each case.
With `CN(C)C(=O)NCc1ccc(/C=C/C(c2cc(Cl)c(Cl)c(Cl)c2)C(F)(F)F)cc1Cl` (stereo not shown) [CC36, (E)-3-(2-Chloro-4-(4,4,4-trifluoro-3-(3,4,5-trichlorophenyl)but-1-en-1-yl)benzyl)-1,1-dimethylurea], the pest or weed control at 50 µg/cm2 in the test with BAW (Spodoptera exigua) and in the test with CEW (Helicoverpa zea) was 50 to 100% throughout.
Take `CCNC(=S)NCc1ccc(/C=C/C(c2cc(Cl)c(Cl)c(Cl)c2)C(F)(F)F)cc1Cl` (stereo not shown) [CC37, (E)-1-(2-Chloro-4-(4,4,4-trifluoro-3-(3,4,5-trichlorophenyl)but-1-en-1-yl)benzyl)-3-ethylthiourea]: the pest or weed control at 50 µg/cm2 in the test on BAW (Spodoptera exigua) and in the test on CEW (Helicoverpa zea) was 50 to 100% each time.
For `C=CCNC(=S)NCc1ccc(/C=C/C(c2cc(Cl)c(Cl)c(Cl)c2)C(F)(F)F)cc1Cl` (stereo not shown) [CC38], the pest or weed control at 50 µg/cm2 in the test with BAW (Spodoptera exigua) and in the test on CEW (Helicoverpa zea) was 50 to 100% in each case.
As for `O=C(NCc1ncc(/C=C/C(c2cc(Cl)c(Cl)c(Cl)c2)C(F)(F)F)cc1Cl)C1CC1` (stereo not shown) [CC45], the pest or weed control at 50 µg/cm2 in the test on BAW (Spodoptera exigua) and with CEW (Helicoverpa zea) was 50 to 100% in each case.
With `O=C(NNc1ccc(/C=C/C(c2cc(Cl)c(Cl)c(Cl)c2)C(F)(F)F)cc1)C1CC1` (stereo not shown) [CC50, (E)-N′-(4-(4,4,4-Trifluoro-3-(3,4,5-trichlorophenyl)but-1-en-1-yl)phenyl)cyclopropanecarbohydrazide], the pest or weed control at 50 µg/cm2 in the test on BAW (Spodoptera exigua) and with CEW (Helicoverpa zea) was 50 to 100% each time.
As for `O=C(CC(F)(F)F)NNc1ccc(/C=C/C(c2cc(Cl)c(Cl)c(Cl)c2)C(F)(F)F)cc1` (stereo not shown) [CC51], the pest or weed control at 50 µg/cm2 with BAW (Spodoptera exigua) and with CEW (Helicoverpa zea) was 50 to 100% in each case.
Take `O=C(CC(F)(F)F)NCc1ccc(/C=C\C(c2cc(Cl)c(Cl)c(Cl)c2)C(F)(F)F)cc1` (stereo not shown) [CC54, (Z)-3,3,3-Trifluoro-N-(4-(4,4,4-trifluoro-3-(3,4,5-trichlorophenyl)but-1-en-1-yl)benzyl)propanamide]: the pest or weed control at 50 µg/cm2 with BAW (Spodoptera exigua) and in the test on CEW (Helicoverpa zea) was 50 to 100% each time.
Consider `FC(F)(F)C(/C=C/c1ccc(-n2cncn2)cc1)c1cc(Cl)cc(Cl)c1` (stereo not shown) [DC1, (E)-1-(4-(3-(3,5-Dichlorophenyl)-4,4,4-trifluorobut-1-en-1-yl)phenyl)-1H-1,2,4-triazole], for which the pest or weed control at 50 µg/cm2 in the test on BAW (Spodoptera exigua) and in the test on CEW (Helicoverpa zea) was 50 to 100% each time.
For `FC(F)(F)c1cc(C(/C=C/c2ccc(-n3cncn3)cc2)C(F)(F)F)cc(C(F)(F)F)c1` (stereo not shown) [DC16], the pest or weed control at 50 µg/cm2 in the test with BAW (Spodoptera exigua) and in the test on CEW (Helicoverpa zea) was 50 to 100% each time.
With `N#Cc1cc(/C=C/C(c2cc(Cl)cc(C(F)(F)F)c2)C(F)(F)F)ccc1-n1cncn1` (stereo not shown) [DC33], the pest or weed control at 50 µg/cm2 in the test on BAW (Spodoptera exigua) and in the test on CEW (Helicoverpa zea) was 50 to 100% each time.
As to `N#Cc1cc(/C=C/C(c2cc(Cl)cc(Cl)c2)C(F)(F)F)ccc1-n1cnc([N+](=O)[O-])n1` (stereo not shown) [DC37], the pest or weed control at 50 µg/cm2 in the test on BAW (Spodoptera exigua) and in the test on CEW (Helicoverpa zea) was 50 to 100% in each case.
Regarding `N#Cc1cc(/C=C/C(c2cc(Cl)cc(Cl)c2)C(F)(F)F)ccc1-n1cnc(N)n1` (stereo not shown) [DC38], the pest or weed control at 50 µg/cm2 in the test on BAW (Spodoptera exigua) and in the test with CEW (Helicoverpa zea) was 50 to 100% throughout.
In the case of `CC(=O)Nc1ncn(-c2ccc(/C=C/C(c3cc(Cl)cc(Cl)c3)C(F)(F)F)cc2C#N)n1` (stereo not shown) [DC39], the pest or weed control at 50 µg/cm2 with BAW (Spodoptera exigua) and with CEW (Helicoverpa zea) was 50 to 100% throughout.
